Results published in patent US11274106B2, “Topoisomerase inhibitors with antibacterial and anticancer activity” (THE BOARD OF TRUSTEES OF THE UNIVERSITY OF ILLINOIS, priority 2017, dated 2022).

Molecular target: E. coli DNA Gyrase (Escherichia coli, UniProt P0AES4+P0AES6)
Assay: E. coli DNA Gyrase supercoiling assay
Format: biochemical
Text: FIG. 8. In vitro inhibitory activity of 6DNM-NH3, Ph-6DNM-NH3 against E. coli DNA gyrase and TopoIV.
DNM and its derivatives exert their antibacterial effects through inhibition of the DNA Gyrase.

Sequence of E. coli DNA Gyrase (P0AES4 whole entry, one chain of several): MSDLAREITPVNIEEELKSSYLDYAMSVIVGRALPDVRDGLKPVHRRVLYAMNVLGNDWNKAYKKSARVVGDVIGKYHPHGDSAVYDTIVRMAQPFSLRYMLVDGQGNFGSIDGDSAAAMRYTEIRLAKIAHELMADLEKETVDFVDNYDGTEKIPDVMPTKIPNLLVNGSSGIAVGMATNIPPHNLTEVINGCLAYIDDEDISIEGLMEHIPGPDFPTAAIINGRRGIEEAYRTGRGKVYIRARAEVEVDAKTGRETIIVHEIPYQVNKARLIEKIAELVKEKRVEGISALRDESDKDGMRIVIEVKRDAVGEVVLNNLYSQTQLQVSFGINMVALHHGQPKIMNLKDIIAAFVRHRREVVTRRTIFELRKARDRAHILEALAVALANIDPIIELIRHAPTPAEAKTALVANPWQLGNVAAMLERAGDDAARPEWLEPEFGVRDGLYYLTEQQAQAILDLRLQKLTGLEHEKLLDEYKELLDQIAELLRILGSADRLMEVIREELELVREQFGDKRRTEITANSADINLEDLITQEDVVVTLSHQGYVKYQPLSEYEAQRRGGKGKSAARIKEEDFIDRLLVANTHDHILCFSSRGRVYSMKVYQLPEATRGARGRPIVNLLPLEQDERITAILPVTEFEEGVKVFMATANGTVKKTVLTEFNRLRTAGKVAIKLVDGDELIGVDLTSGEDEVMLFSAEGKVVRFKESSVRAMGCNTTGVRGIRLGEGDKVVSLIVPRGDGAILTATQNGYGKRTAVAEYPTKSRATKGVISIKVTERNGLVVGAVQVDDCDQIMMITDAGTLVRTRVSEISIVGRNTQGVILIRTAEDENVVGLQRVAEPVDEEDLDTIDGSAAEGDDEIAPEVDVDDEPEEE

Cc1cc(=O)n2c3c(c4c(cc13)c1ccccc1c(=O)n4C)OCC2CN (stereo not shown) [Compound 15]
Inhibition of purified E. coli DNA Gyrase: able to inhibit
